Results from patent US8003595B2, “Amino acid sequences facilitating penetration of a substance of interest into cells and/or cell nuclei” (Cellectis, priority 2000, dated 2011).
Where two headings read alike, the source gives them in different places. Where no end group is shown, it is not given here. [ ]: non-standard residue; d: D form.

Experiments:
[1] = ELISA fixation of biotinylated peptides on sensitized plates; type: binding; details: read-out: avidity (Kd), quantity of peptides necessary to obtain 50% fixation, Chondroitin A; Table 5
[2] = as above; type: binding; details: read-out: avidity (Kd), quantity of peptides necessary to obtain 50% fixation, Chondroitin B; Table 5
[3] = as above; type: binding; details: read-out: avidity (Kd), quantity of peptides necessary to obtain 50% fixation, Chondroitin C; Table 5
[4] = test system: H1299 cells; assay: Internalization of covalent peptide-peroxidase conjugates; type: cell-based, human; details: for Internalization of Peptide-peroxidase: H1299, 0.2 μg/ml conjugate; for Internalization of Peptide-peroxidase / quantity of peptide internalized: 2 hours
Method: (§1) To evaluate more directly the penetration of the peptides, avoiding the avidin-peroxidase bias, some of the peptides in sequences SEQ ID NO: 25 to 48 were conjugated covalently with cysteine in the C-terminal position of the peptide to peroxidase. The peptides were coupled with peroxidase in the following way:
(§2) One mg of peroxidase activated with maleimide (Sigma) in 100 μl of sodium phosphate buffer, NaCl 0.15 M, EDTA 5 mM, had 1 mg of peptide added to it. After 2 hours at laboratory temperature, β-mercaptoethanol is added to a final concentration of 1.5 mM for 15 minutes. The uncoupled peptide is eliminated by centrifugation on ultrafiltration membranes (cut-off threshold=30,000 Daltons, Sartorius), followed by three washings in sodium phosphate buffer 0.1 M, pH 7.4 containing 0.15 M NaCl.
The H1299 cells are incubated for 2 hours with the conjugates at increasing concentrations of peptide-peroxidase in the culture medium, then washed with PBS. The cells are lysed and the quantity of peptide internalized is evaluated by the dosage of peroxidase in the lysate of the cells with reference to a curve established with peptide-peroxidase.
The quantity of peptide internalized (pg/10^3 cells), depending on the concentrations of conjugates in the culture medium, is shown in Table 8 below.
(§3) It appears that the higher the concentration of peptide-peroxidase conjugate in the culture medium, the more the quantity internalized increases. To compare the penetration of the conjugates by cell type, the cells from different lines were incubated with 0.2 μg/ml of peptide-peroxidase conjugate for 2 hours, and the quantity of peroxidase dosed in the lysates. Table 9 and Table 9B below give the results expressed in pg/10^3 cells. The quantity of each peptide internalized in the different lines generally varies only from single to double.

[5] = test system: 3T3; assay: as above; type: cell-based, mouse; details: 2 hours
Method: as §1, §2, §3

[6] = test system: HeLa; assay: as above; type: cell-based, human; details: 2 hours
Method: as §1, §2, §3

[7] = ELISA fixation of biotinylated peptides on sensitized plates; type: binding; details: read-out: avidity (Kd), quantity of peptides necessary to obtain 50% fixation, Heparin, Table 5
Method: The capacity of peptides SEQ ID NO: 1 to 21 to attach themselves to DNA and heparin is evaluated on ELISA plates sensitized with DNA or heparin. Dilutions of biotinylated peptides are deposited on the plates and their fixation is shown using streptavidin conjugated with peroxidase. […] The avidity of each of the peptides for DNA or heparin is evaluated by the quantity (×10^−6 M) of peptides necessary to obtain 50% fixation.

[8] = test system: cells; assay: Penetration of biotinylated peptides inside cells (microscopy, S-PO coloration); type: cell-based; details: biotinylated peptides 50 to 6 μg/ml, 1-18 hours, revealed with S-PO
Method: The cells are cultivated in the presence of the different peptides carrying, on the N-terminal side, biotin in decreasing concentrations (50 to 6 μg/ml) in the culture medium for variable times (1-18 hours).
At the end of the culture, the cells are washed three times with PBS (0.15 M NaCl buffered with 0.01 M potassium phosphate buffer pH 7.4) then fixed 15 minutes in ethanol at −20° C. The penetration of the peptide is evaluated after incubation for 30 minutes with streptavidin conjugated with peroxidase (abbreviated S-PO for streptavidin-peroxidase). Then, the S-PO is eliminated, and the cells are washed. […] With the other peptides, positive colorations, but of variable intensity, were noted.

[9] = test system: H1299 cells; assay: Internalization of biotinylated peptide/S-PO complexes; type: cell-based, human
Method: A biotinylated/S-PO peptide or biotinylated/A-PO complex (A-PO for avidin-peroxidase) is prepared extemporaneously in two ways:
1) either in a peptide: S-PO or A-PO molar ratio of 4:1 (for example, 1.4 μg of peptide with a molecular weight of 3500 to 10 μg of S-PO; the weight of S-PO used varies depending on the peptides since their molecular weights are different).
2) or in a peptide: S-PO or A-PO molar ratio of 25:1 (for example 1.7 μg of peptide with a molecular weight of 3500 to 1 μg of S-PO).
The complexes are prepared by incubating the biotinylated peptide with S-PO or A-PO in PBS in a volume of 5 to 10 μl for 15 minutes at laboratory temperature. They are then diluted in 1 ml of complete culture medium, filtered on a 0.2 micron membrane and incubated with the cells for 4 hours. The cells are then washed three times with PBS.
To study the penetration of the complexes under a microscope, the cells are fixed as before for 15 minutes in ethanol at −20° C., they are washed with PBS, and the activity of the internalized peroxidase is shown by diaminobenzidine in the presence of H2O2. To measure the quantity of peptide/S-PO or A-PO complexes internalized, the cells are trypsinized, transferred into microtubes and counted. They are washed twice by centrifugation, then the residue is suspended in 200 μl of lysis buffer (Tris buffer, 0.1 M, pH8, 0.5% Nonidet). After 15 minutes, the peroxidase contained in the lysis buffer is dosed onto 96-well plates with ortho-dianisidine and H2O2 by comparison with a standard curve for S-PO. The reading is taken at 450 nm. The quantity contained in the different samples is expressed in picograms (pg) per 10^4 cells.
Table 7 below reports the results of evaluating the influence of SEQ ID NO: 1 on the penetration of peptides coupled to SEQ ID NO: 1 into H1299 cells, where
Concentration a: 25 peptides to one molecule of S-PO (1 μg),
Concentration b: 4 peptides to one molecule of S-PO (10 μg).

[10] = Conc. a: 25 peptides to one molecule of S-PO (1 μg)
[11] = Conc. b: 4 peptides to one molecule of S-PO (10 μg)
[12] = peptide: S-PO complexes of 4:1, peptide concentration of 1 μg

## AKTGKRKRSG [SEQ ID NO: 36]
[1]
  Kd: 287 nM
[2]
  Kd: 301 nM
[3]
  Kd: 205 nM
[4]; Table 9
  Internalization of Peptide-peroxidase: 10.6 pg/10^3 cells
[5]; Table 9, 0.2 μg/ml conjugate
  Internalization of Peptide-peroxidase: 20.3 pg/10^3 cells
[6]; Table 9, 0.2 μg/ml conjugate
  Internalization of Peptide-peroxidase: 4.4 pg/10^3 cells

## GLKKNGSCKRGPR [SEQ ID NO: 33]
[7]; listed as HBP8
  Kd: 168 nM
[1]
  Kd: 225 nM
[2]
  Kd: 260 nM
[3]
  Kd: 110 nM
[4]; Table 9
  Internalization of Peptide-peroxidase: 3.6 pg/10^3 cells
[5]; Table 9, 0.2 μg/ml conjugate
  Internalization of Peptide-peroxidase: 7.6 pg/10^3 cells
[6]; Table 9, 0.2 μg/ml conjugate
  Internalization of Peptide-peroxidase: 2.1 pg/10^3 cells

## QGKSKREKKDRVF [SEQ ID NO: 37]
[1]
  Kd: 176 nM
[2]
  Kd: 173 nM
[3]
  Kd: 93 nM
[4]; Table 9
  Internalization of Peptide-peroxidase: 4.3 pg/10^3 cells
[5]; Table 9, 0.2 μg/ml conjugate
  Internalization of Peptide-peroxidase: 5.7 pg/10^3 cells
[6]; Table 9, 0.2 μg/ml conjugate
  Internalization of Peptide-peroxidase: 2.5 pg/10^3 cells

## SEQ ID NO: 6: Peptide containing part of CDR2 and CDR3 regions of monoclonal murine antibody F4.1 (TYYSDTVKGRFTRQKYNKRA; Mus musculus x Rattus norvegicus)
[8]
  intracellular cytochemical coloration: Faint coloration
[9]; [10]
  S-PO internalized: 1 pg/10^4 cells
[9]; [11]
  S-PO internalized: 130 pg/10^4 cells

## SEQ ID NO: 7: Peptide containing SEQ ID NO: 1 and SEQ ID NO: 6 (VKRGLKLTYYSDTVKGRFTRQYNKRA; Homo sapien - Mus musculus - Rattus norvegicus)
[8]
  intracellular cytochemical coloration: intense coloration
[9]; [10]
  S-PO internalized: 240 pg/10^4 cells
[9]; [11]
  S-PO internalized: 220 pg/10^4 cells

## SEQ ID NO: 8: Peptide corresponding to the hypervariable CD3 region of human anti-DNA monoclonal antibody RTT79 (VRRSGRVVVPAAPRNRD; listed as Homo sapiens)
[8]
  intracellular cytochemical coloration: Faint coloration
[9]; [10]
  S-PO internalized: 50 pg/10^4 cells
[9]; [11]
  S-PO internalized: 1310 pg/10^4 cells

## SEQ ID NO: 9: Peptide containing SEQ ID NO: 1 and SEQ ID NO: 8 (VKRGLKLVRRSGRVVVPAAPRNRD; listed as Homo sapiens)
[8]
  intracellular cytochemical coloration: intense coloration
[9]; [10]
  S-PO internalized: 340 pg/10^4 cells
[9]; [11]
  S-PO internalized: 8280 pg/10^4 cells

## SEQ ID NO: 17: Peptide reacting with heparin derived from human lipoprotein E (LRKRLLRD; listed as Homo sapiens)
[8]
  intracellular cytochemical coloration: do not give any positive intracellular cytochemical coloration
[9]; [12]
  S-PO internalized: 3 pg/10^4 cells

## SEQ ID NO: 18: Peptide reacting with heparin derived from the amino acid sequence of agrine (KSRK; listed as Homo sapiens)
[8]
  intracellular cytochemical coloration: do not give any positive intracellular cytochemical coloration
[9]; [12]
  S-PO internalized: 3 pg/10^4 cells

## SEQ ID NO: 19: Dimer of SEQ ID NO: 18 (KSRKKSRK; not fully specified; listed as Homo sapiens)
[8]
  intracellular cytochemical coloration: Faint coloration
[9]; [12]
  S-PO internalized: 167 pg/10^4 cells

## SEQ ID NO: 27: SEQ ID NO: 26 in which the amino acids are in configuration D ([dS][dE][dR][dK][dK][dR][dR][dR][dE][dS][dR][dK][dK][dR][dR][dR][dE][dS]; listed as Homo sapiens)
[4]; Table 9B
  Internalization of Peptide-peroxidase: 59.1 pg/10^3 cells
[5]; Table 9B, 0.2 μg/ml conjugate
  Internalization of Peptide-peroxidase: 63.7 pg/10^3 cells
[6]; Table 9B, 0.2 μg/ml conjugate
  Internalization of Peptide-peroxidase: 4.1 pg/10^3 cells

## SEQ ID NO: 31: homolog of SEQ ID NO: 30 with amino acid sequence in the reverse position (b233 says SEQ ID NO: 12) (PDRKKGLKGKKKRKKG; (1)..(16) The amino acids are in front-back position; listed as Homo sapiens)
[4]; Table 9B
  Internalization of Peptide-peroxidase: 70.6 pg/10^3 cells
[5]; Table 9B, 0.2 μg/ml conjugate
  Internalization of Peptide-peroxidase: 75.9 pg/10^3 cells
[6]; Table 9B, 0.2 μg/ml conjugate
  Internalization of Peptide-peroxidase: 8.7 pg/10^3 cells

## SEQ ID NO: 32: SEQ ID NO: 30 in which the amino acids are in configuration D (G[dK][dR][dK][dK][dK]G[dK][dL]G[dK][dK][dR][dD]; listed as Homo sapiens)
[4]; Table 9B
  Internalization of Peptide-peroxidase: 56.7 pg/10^3 cells
[5]; Table 9B, 0.2 μg/ml conjugate
  Internalization of Peptide-peroxidase: 50 pg/10^3 cells
[6]; Table 9B, 0.2 μg/ml conjugate
  Internalization of Peptide-peroxidase: 7.7 pg/10^3 cells

## VKRGLKL (listed as Homo sapiens) [SEQ ID NO: 1, Peptide reacting with heparin from human lipoprotein B]
[8]
  intracellular cytochemical coloration: do not give any positive intracellular cytochemical coloration
[9]; [12]
  S-PO internalized: 3 pg/10^4 cells

## VKRGLKLRHVRPRVTRMDV (listed as Homo sapiens) [SEQ ID NO: 10]
[8]
  intracellular cytochemical coloration: intense coloration
[4]; Table 9
  Internalization of Peptide-peroxidase: 10 pg/10^3 cells
[5]; Table 9, 0.2 μg/ml conjugate
  Internalization of Peptide-peroxidase: 35 pg/10^3 cells
[6]; Table 9, 0.2 μg/ml conjugate
  Internalization of Peptide-peroxidase: 4.7 pg/10^3 cells

## YRSRKYSSWYYALKR [SEQ ID NO: 34]
[7]
  Kd: 45 nM
[1]
  Kd: 47 nM
[2]
  Kd: 47 nM
[3]
  Kd: 25 nM
[4]; 0.01 μg/ml
  percentage of quantity of peroxidase internalized compared to quantity deposited: (0.01) %
[4]; 0.1 μg/ml
  percentage of quantity of peroxidase internalized compared to quantity deposited: (1.4) %
[4]; 0.5 μg/ml
  percentage of quantity of peroxidase internalized compared to quantity deposited: (8.14) %
[4]; 1 μg/ml
  percentage of quantity of peroxidase internalized compared to quantity deposited: (10.9) %
[4]; Table 9
  Internalization of Peptide-peroxidase: 3.8 pg/10^3 cells
[4]; peptide-peroxidase 0.01 μg/ml
  quantity of peptide internalized: 0.002 pg/10^3 cells
[4]; peptide-peroxidase 0.1 μg/ml
  quantity of peptide internalized: 1.4 pg/10^3 cells
[4]; peptide-peroxidase 0.5 μg/ml
  quantity of peptide internalized: 40.7 pg/10^3 cells
[4]; peptide-peroxidase 1 μg/ml
  quantity of peptide internalized: 109 pg/10^3 cells
[5]; Table 9, 0.2 μg/ml conjugate
  Internalization of Peptide-peroxidase: 9 pg/10^3 cells
[6]; Table 9, 0.2 μg/ml conjugate
  Internalization of Peptide-peroxidase: 3.4 pg/10^3 cells
